Here are results for 7 compounds from patent publication US20220347125A1, “ANTITUMOR AGENT AND COMPOUNDING AGENT” (Keio University, priority 2019, published 2022).

For series [1], the system named is A549 cells. The series is described as follows: Western blotting after Nrf2 siRNA lipofection (Experimental Example 17). Conditions: 48 hours after lipofection. Type of series: cell-based. The protocol: Nrf2, xCT, and β-actin expressions were detected in the extracts of SSZ-resistant tumor cells (HCT116, HSC-4, and A549) via Western blotting with primary antibodies against Nrf2, xCT, and β-actin and HRP-conjugated secondary antibody. Chemiluminescence Reagent Plus (Perkin-Elmer Japan) was used for detection.
Next, siRNA against the Nrf2 gene was lipofected into A549 cells to suppress the Nrf2 gene expression. The extracts of the lipofected A549 cells were prepared after 48 hours and the expressions of Nrf2, xCT, ALDH3A1, and β-actin were examined via Western blotting in the same way as above. The following sequences (bases shown in lower case are DNA overhangs) were used as siRNA.
For orientation: Immunoblotting shows a protein as a band on a membrane.

For series [2], the system named is A549 cells. The series is described as follows: Cell viability, Nrf2 siRNA or ML385 with OXY and SSZ or BSO (Experimental Example 18). Type of series: cell-based. Conditions: in addition to 400 μM SSZ and 50 μM OXY, 48 hours. The protocol:
A549 cells were transfected with siRNA against the Nrf2 gene as in Example 17, or the medium was supplemented with ML385 that is an Nrf2 inhibitor. Cells were cultured for 48 hours in a medium containing 50 μM OXY, and 400 μM SSZ or 100 μM BSO, as in Example 11. Then, the cells were assayed for cell viability. As a control, the experiments were performed in a medium without any of the above. DMSO, however, was added appropriately to add a constant volume of DMSO in all cases.

A further series deals with ALDH. The series is described as follows: ALDH activity, ALDEFLUOR Kit with FACS in HSC-4 cells (Experimental Example 5). Type of series: cell-based. Conditions: 50 μM dyclonine 24 hours, or DEAB, DMSO-treated cells approximately 25%. The protocol: HSC-4 cells, a sulfasalazine-resistant oral squamous carcinoma cell line, were seeded at 8×10^5 cells/dish in 10-cm cell culture dishes, and culture was started. DMEM was used as the culture medium. After 24 hours, the medium was replaced with a medium containing 50 μM dyclonine (solvent: DMSO), and the cells were cultured for another 24 hours. The cells were then collected, stained with the ALDEFLUOR Kit (STEMCELL Technologies) for ALDH activity in the presence of N,N-diethylaminobenzaldehyde (DEAB), and analyzed by FACS (“Dyclonine” in the figure). As a control, experimental results are shown for cells cultured in the absence of DEAB which were not stained with the ALDEFLUOR Kit (“Unstained” in the figure), and cells that were stained with the ALDEFLUOR Kit after replacing the medium with an equal volume of medium with DMSO and without dyclonine (“Non-treatment” in the figure). For the positive cell counts, a gate was set to gate out positive cells to almost 0% in the DMSO-treated sample stained with the ALDEFLUOR Kit in the presence of DEAB (“DEAB” in the figure), and the positive rate in each case was calculated.

The subject of a further series is A549, HCT116 and HSC4. The series is described as follows: Cell viability, oxyfedrine with SSZ or BSO, statements for all three lines (Experimental Example 11). The settings on record: 48 hours; for effect on cell survival rate: 400 μM sulfasalazine alone or 100 μM L-buthionine sulfoximine alone. The protocol: Alveolar basal epithelial adenocarcinoma cell line A549, colon adenocarcinoma cell line HCT116, and oral squamous carcinoma cell line HSC-4, all of which are resistant to sulfasalazine or L-buthionine-sulfoximine, were seeded in 96-well plates at 4000 cells/well, and the culture was started. RPMI was used for the A549 and DMEM was used for the HCT116 and HSC-4 as culture media. After 24 hours, each medium was replaced with a medium containing 50 or 100 μM oxyfedrine or an equal volume of DMSO, and 0 (no sulfasalazine and no L-buthionine sulfoximine) or 400 μM sulfasalazine or 100 μM L-buthionine sulfoximine, and the culture was continued for 48 hours. Then, the cells were assayed for cell viability using CellTiter-Glo (Promega), and a cell survival rate in each case was calculated taking the number of live cells in the control (DMSO added, and sulfasalazine and L-buthionine sulfoximine not added) as 100%.

The test system of series [3] is SSZ-resistant tumor cells (HCT116 and HSC-4). The series is described as follows: Intracellular GSH levels, GSH-Glo Glutathione Assay (Experimental Example 12). Conditions: BSO or OXY alone, or SSZ with OXY, after 48 hours. Type of series: cell-based. How it is done: SSZ-resistant tumor cells (HCT116 and HSC-4) were used and the cells were treated in a similar manner to that in Example 11, and the intracellular GSH levels were measured after 48 hours using a GSH-Glo Glutathione Assay Kit (Promega).

In series [4] the test system is sulfasalazine-resistant tumor cells (HCT116 and HSC-4). The series is described as follows: Intracellular HNE accumulation, SSZ or BSO with OXY (Experimental Example 13). Conditions: SSZ, BSO or OXY alone, or SSZ or BSO in combination with OXY. It counts as cell-based. The protocol: (§1) As in Experimental Example 1, HSC-4 cells were cultured in a medium containing 50 μM dyclonine or an equal volume of DMSO and 0 μM (not added) or 400 μM sulfasalazine, and the treated cells were fixed with 4% PFA-PBS. Then, the cells were permeabilized with 0.2% Triton X100-PBS, followed by blocking with 3% BSA-PBS. Subsequently, fluorescent staining was performed using an anti-HNE antibody as the primary antibody and AlexaFluor 488-conjugated anti-mouse IgG antibody as the secondary antibody. As a positive control, cells incubated with 50 μM HNE for 30 min were used and stained using antibodies in a similar manner.
In this experimental example, sulfasalazine-resistant tumor cells (HCT116 and HSC-4) were used, and the cells were treated as in Experimental Example 6 and then observed under a fluorescence microscope.

For series [5], the system named is HSC-4, a sulfasalazine-resistant oral squamous carcinoma cell line. The series is described as follows: Cell viability (CellTiter-Glo), sulfasalazine and dyclonine (Experimental Example 1). It counts as cell-based. Conditions: 48 hours. How it is done:
HSC-4, a sulfasalazine-resistant oral squamous carcinoma cell line, was seeded in a 96-well plate at 2000 cells/well, and culture was started. DMEM was used as the culture medium. After 24 hours, the medium was replaced with a medium containing 50 μM dyclonine or an equal volume of DMSO, as well as 0 (not added), 50, 100, 200, or 400 μM sulfasalazine, and the culture was continued for 48 hours.
(Cellular ATP, detected with luciferase, serves as a proxy for viable cell number.)

The test system of series [6] is HSC-4 cells. The series is described as follows: Dyclonine sensitivity after xCT knockdown, cell viability (Experimental Example 2). It counts as cell-based. Conditions: 48 hours. How it is done: HSC-4 cells, a sulfasalazine-resistant oral squamous carcinoma cell line, were seeded in a 96-well plate at 3000 cells/well, and nonsilencing control (scrambled (Sense: UUCUCCGAACGUGUCACGUtt (SEQ ID NO. 1), Antisense: ACGUGACACGUUCGGAGAAtt (SEQ ID NO. 2))) and siRNA or xCT specific siRNA (xCT siRNA #1 Sense: AGAAAUCUGGAGGUCAUUAtt (SEQ ID NO. 3), Antisense: […] (SEQ ID NO. 4), xCT siRNA #2 Sense: CCAGAACAUUACAAAUAAUtt (SEQ ID NO. 5), Antisense: AUUAUUUGUAAUGUUCUGGtt (SEQ ID NO. 6)) were lipofected using Lipofectamine RNAiMAX (Thermo Fisher Scientific), and culture was started. DMEM was used as the culture medium. After 24 hours, the medium was replaced with a medium containing 50 μM dyclonine (solvent: DMSO) or an equal volume of DMSO, and the culture was continued for 48 hours.

Series [7] relates to HSC-4 cells. Put plainly: Intracellular HNE accumulation, anti-HNE fluorescent staining (Experimental Example 6). Type of series: cell-based. Conditions: 50 μM dyclonine and/or 400 μM sulfasalazine. The protocol: as §1
Series [8] relates to SSZ-resistant tumor cells (HCT116 and HSC-4). The series is described as follows: Cell survival rate after ionizing radiation in the presence of OXY (Experimental Example 16). Type of series: cell-based. Conditions: irradiated at 4, 6 or 10 Gy in the presence of 50 μM OXY, after 24 hours; versus irradiation or OXY alone. The protocol: (§2) In this experimental example, SSZ-resistant tumor cells (HCT116 and HSC-4) were irradiated with ionizing radiation at a dose of 4, 6, or 10 Gy using an X-ray irradiation system (Hitachi MBR-1520R-4, settings: 150 kV, 20 mA) in the presence of 50 μM oxyfedrine (OXY). In parallel, samples without OXY and ionizing radiation (0 Gy) were processed as a control. After 24 hours, cell survival rate was calculated as in Experimental Example 1. In addition, intracellular HNE was visualized as in Experimental Example 6.

The test system is the same in series [9]. The series is described as follows: Intracellular HNE after ionizing radiation in the presence of OXY (Experimental Example 16). It counts as cell-based. Conditions: irradiation and 50 μM OXY treatment in combination. The protocol:
as §2

For series [10], the system named is sulfasalazine-resistant, oral squamous carcinoma cell line HSC-2. The series is described as follows: In vivo tumor weight, X-irradiation and oxyfedrine (Experimental Example 19). More on the design: species or system nude mice. The settings on record: oxyfedrine 20-30 mg/kg intraperitoneally Days 1-7, versus non-treated group. The protocol:
The mice were injected intraperitoneally with oxyfedrine (OXY) (20 mg/kg) for 3 consecutive days (Days 1-3) immediately after transplantation. On Day4, oxyfedrine (30 mg/kg) was intraperitoneally administered, and X-rays (4, 6, or 10 Gy) were irradiated to the nude mice 2 hours later. Then, after intraperitoneal administration of oxyfedrine (20 mg/kg) for 3 days (Days 5-7), tumors were collected on Day 7 and weighed. The results are shown in a bar graph in FIG. 21. The groups of nude mice on which transplantation was performed in the same way, to which oxyfedrine was administered in the same way without X-irradiation, and to which no oxyfedrine was administered with X-irradiation in the same way, were used as controls. For statistical treatment, Student's 1-test was performed between the oxyfedrine and non-treated groups for each X-ray dose, and p value of less than 0.05 was considered significant.

d = 2'-deoxy (DNA); r = 2'-OH (RNA)

In the case of “siRNA against the Nrf2 gene: siRNA against the Nrf2 gene, SEQ ID NO. 9 and 10 (chain 1 UCCUACUGUGAUGUGAAAUTT; chain 2 AUUUCACAUCACAGUAGGAGC; sugars from the 5' end r19 d2, backbone not given here)”, the “expressions of xCT and ALDH3A1” value in the series on A549 cells [1] is “suppressed”. For the same compound, the cell survival rate entry with A549 cells [2] is given as “effectively reduced”.

For `Cc1ccccc1C(=O)N1CCc2cc(-c3nc(NC(=O)Cc4ccc5c(c4)OCO5)sc3C)ccc21` [ML385], in the series with A549 cells [2], the cell survival rate result is given as “effectively reduced”.

Consider `CCN(CC)c1ccc(C=O)cc1` [DEAB, N,N-diethylaminobenzaldehyde], for which, in the series on ALDH, the “cell population with high ALDH activity” value is given as “approximately 1%”.

Regarding `CCCCS(=N)(=O)CC[C@H](N)C(=O)O` (stereo partly drawn) [BSO, L-buthionine-sulfoximine], in the series on A549, HCT116 and HSC4, the “effect on cell survival rate” value is on record as “little effect”. Further, the “intracellular GSH levels” value in series [3] is given as “reduced”. Further, in series [4], the “intracellular HNE levels and frequency” value is “increased intracellular HNE levels were observed at a low frequency”.

Consider `CCCCOc1ccc(C(=O)CCN2CCCCC2)cc1` [dyclonine], for which the cell survival in series [5] (50 μM dyclonine alone, no sulfasalazine added, control (DMSO) = 100%) was determined as 80%. The “HSC-4 cell survival rate” value with HSC-4 cells [6] (50 μM dyclonine alone (nonsilencing control)) was “approximately 60%”; with HSC-4 cells [6] (xCT knockdown (xCT siRNA) in the presence of 50 μM dyclonine) it was 10-20%. Also, in the series on ALDH, the “cell population with high ALDH activity” value is listed as “approximately 1%”. Further, in the series on HSC-4 cells [7], the “intracellular HNE level and frequency” value is reported as “an increase in intracellular HNE level was observed at a low frequency”.

With oxyfedrine, the cytotoxic effect result in the series on A549, HCT116 and HSC4 (50 μM oxyfedrine alone, without sulfasalazine) is given as “no significant cytotoxic effect”. Also, the “intracellular GSH levels” value in series [3] is on record as “did not reduce the intracellular GSH levels”. In series [4], the “intracellular HNE levels and frequency” value is reported as “increased intracellular HNE levels were observed at a low frequency”. Moreover, the cell survival rate entry in series [8] was “significantly and markedly reduced”. Further, in series [9], the “intracellular HNE-accumulating cells” value is “high levels of intracellular HNE-accumulating cells were observed at a high frequency”. The tumor weight gain result in [10] (4 Gy X-irradiation) is given as “tended to be suppressed”; in series [10] (6 Gy X-irradiation), “significantly suppressed”; in [10] (10 Gy X-irradiation) it was “significantly suppressed”; in series [10] (without X-irradiation), “tended to be suppressed”.

As for `O=C(O)c1cc(/N=N/c2ccc(S(=O)(=O)Nc3ccccn3)cc2)ccc1O` [sulfasalazine], the “effect on cell survival” value in series [5] (sulfasalazine alone, 50-400 μM) is on record as “almost no effect”. Besides, in the series with HSC-4 cells [7], the “intracellular HNE level and frequency” value is reported as “an increase in intracellular HNE level was observed at a low frequency”. Besides, the “effect on cell survival rate” value in the series with A549, HCT116 and HSC4 is reported as “little effect”. Moreover, the “intracellular GSH levels” value in series [3] is recorded as “reduced”. Besides, the “intracellular HNE levels and frequency” value in series [4] is reported as “increased intracellular HNE levels were observed at a low frequency”.
